Test results from US9834534B2, “Neuraminidase inhibitor compounds, compositions and methods for the use thereof in anti-viral treatments” (THE UNIVERSITY OF BRITISH COLUMBIA, priority 2009, dated 2017).
Values joined by “and” are separate entries in the source; they are usually repeats but may differ in a detail not shown here. Identical values can stand only once. Like-named read-outs stand apart in the source and are kept apart here.

Assays:
[1] = tested on: influenza A/Brisbane/10/2007 (H3N2); assay: microbe, parasite or virus in culture; assay type: cell-based, influenza A virus; conditions: for minimal effective concentration: Influenza A virus, H3N2, MDCK, read-out: Cytoprotective effect
[2] = tested on: influenza A/Denver/1/57 (H1N1); assay: microbe, parasite or virus in culture; assay type: cell-based, influenza A virus; conditions: for minimal effective concentration: Influenza A virus, H1N1, MDCK, read-out: Cytoprotective effect
[3] = tested on: influenza B/HongKong/5/72; assay: microbe, parasite or virus in culture; assay type: cell-based, influenza B virus; conditions: for minimal effective concentration: Influenza B virus, MDCK, read-out: Cytoprotective effect
[4] = tested on: influenza B/Florida/04/06; assay type: cell-based; conditions: for Relative activity: relative to Zanamivir
[5] = tested on: influenza A virus, A/HK/1/68 (H3N2); set-up: species or system Balb/C mice (Mus musculus); conditions: mouse, in vivo
[6] = tested on: Sol Isl sH1N1 wt (A/Solomon Islands/3/2006); assay: microbe, parasite or virus in culture; assay type: cell-based, influenza A virus; conditions: read-out: IC50 Sol Isl sH1N1 wt
[7] = tested on: Auckland pH1N1 wt (A/Auckland/3/2009); assay: microbe, parasite or virus in culture; assay type: cell-based; conditions: Influenza A virus, read-out: IC50 Auckland pH1N1 wt
[8] = tested on: Fukui H3N2 wt; assay: microbe, parasite or virus in culture; assay type: cell-based; conditions: Influenza A virus, H3N2, read-out: IC50 Fukui H3N2 wt
[9] = tested on: sH1N1/01 wt; assay: microbe, parasite or virus in culture; assay type: cell-based; conditions: Influenza A virus, read-out: IC50 sH1N1/01 wt
[10] = tested on: sH1N1/08 wt; assay: microbe, parasite or virus in culture; assay type: cell-based; conditions: Influenza A virus, read-out: IC50 sH1N1/08 wt
[11] = tested on: MDCK cells; conditions: dog
[12] = Balb/C, mouse, in vivo, 1 mg/kg
[13] = in vivo; conditions: Balb/C, mouse, 1 mg/kg; for half-life: T1/2
[14] = molecular target: influenza sialidase (subtype N9) (Influenza A virus, UniProt P03472); assay: biochemical; assay type: biochemical
Chain of influenza sialidase (subtype N9) (P03472 whole entry, looked up): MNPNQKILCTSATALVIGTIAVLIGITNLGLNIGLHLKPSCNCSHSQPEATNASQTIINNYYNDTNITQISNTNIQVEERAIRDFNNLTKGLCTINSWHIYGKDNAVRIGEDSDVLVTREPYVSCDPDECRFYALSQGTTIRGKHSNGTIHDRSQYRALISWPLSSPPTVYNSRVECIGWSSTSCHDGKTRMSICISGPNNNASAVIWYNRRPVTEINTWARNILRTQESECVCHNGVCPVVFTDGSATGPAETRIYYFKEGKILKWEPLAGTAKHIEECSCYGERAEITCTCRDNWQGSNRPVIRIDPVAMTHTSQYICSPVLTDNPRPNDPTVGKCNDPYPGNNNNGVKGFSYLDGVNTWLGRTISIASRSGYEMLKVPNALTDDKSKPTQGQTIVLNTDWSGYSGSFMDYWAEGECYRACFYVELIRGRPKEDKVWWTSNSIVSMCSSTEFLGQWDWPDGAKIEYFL

[15] = tested on: B/Florida wt (B/Florida/4/2006); assay: microbe, parasite or virus in culture; assay type: cell-based; conditions: Influenza B virus, read-out: IC50 B/Florida wt
[16] = tested on: B/Perth wt; assay: microbe, parasite or virus in culture; assay type: cell-based; conditions: Influenza B virus, read-out: sensitivity to inhibitors, B/Perth wt
[17] = 1 mg/kg; for % weight loss mean +/− SD: mouse, in vivo; for number of animals remaining: n = 5
[18] = molecular target: H1N1 OsR (Influenza A virus (H1N1), UniProt Q289M4); conditions: for ki: pH 7.6
Chain of H1N1 OsR (Q289M4 whole entry, looked up): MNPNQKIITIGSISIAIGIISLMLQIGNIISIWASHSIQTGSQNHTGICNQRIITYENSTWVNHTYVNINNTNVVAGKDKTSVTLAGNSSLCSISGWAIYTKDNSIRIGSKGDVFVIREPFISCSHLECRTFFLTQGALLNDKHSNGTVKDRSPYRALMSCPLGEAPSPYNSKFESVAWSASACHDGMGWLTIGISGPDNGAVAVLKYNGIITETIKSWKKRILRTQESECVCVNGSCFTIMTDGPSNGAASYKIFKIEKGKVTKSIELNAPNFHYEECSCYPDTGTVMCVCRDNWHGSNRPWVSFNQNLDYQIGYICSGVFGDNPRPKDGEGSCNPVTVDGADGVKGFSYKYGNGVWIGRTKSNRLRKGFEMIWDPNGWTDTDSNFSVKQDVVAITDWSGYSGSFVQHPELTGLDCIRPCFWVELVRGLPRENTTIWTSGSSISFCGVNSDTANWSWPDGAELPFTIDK

[19] = tested on: A/Brisbane NML (H3N2); assay type: cell-based, influenza A virus
[20] = tested on: A/Denver (H1N1); assay type: cell-based, influenza A virus
[21] = tested on: A/New Caledonia (H1N1); assay type: cell-based, influenza A virus

| SMILES | Cytoprotective effect [1] | Relative activity [1] | Relative activity [2] | Relative activity [3] | Cytoprotective effect ([4]; Replicate 2) | IC50 [8] | IC50 [9] | Relative toxicity [11] | Toxicity [11] | half time for the full inactivation of the sialidase [14] | Kd ([14]; 30° C., pH 7.6) | minimal effective concentration [1] | minimal effective concentration [2] | minimal effective concentration [3] | ki/Kd ([14]; pH 7.6) | further results |
| --- | --- | --- | --- | --- | --- | --- | --- | --- | --- | --- | --- | --- | --- | --- | --- | --- |
| CC(=O)N[C@H]1[C@H]([C@H](O)[C@H](O)CO)OC(C(=O)O)=C[C@@H]1N=C(N)N [Zanamivir, reference compound] | 369.9 ng/mL | 1.0 | 1.0 | 1.0 | 887 ng/mL | 3.8 µM | 0.0019 µM | 1.0 | 568 µg/mL | – | – | – | – | – | – | Cytoprotective effect [4]: 2219 ng/mL; Relative activity ([4]; Replicate 1): 1.0; Relative activity ([4]; Replicate 2): 1.0; survival compared to the untreated control group [5]: significantly extended; % weight loss mean +/− SD ([5]; 0.1 mg/kg): 16.73 +/− 2.62%; % weight loss mean +/− SD ([5]; 1 mg/kg): 12.24 +/− 2.34%; IC50 [6]: 0.0022 µM; IC50 [7]: 0.0006 µM; IC50 [10]: 0.001 µM; AUC(Lung) (Zanamivir/DFSA-4Gu) ([12]; inhaled or intranasal): 1.07; AUC ([13]; inhaled or intranasal): 4230 ng·h/mL; half-life ([13]; inhaled or intranasal): 19.1 min |
| CC(=O)N[C@@H]1C(NC(=N)N)C(F)[C@](F)(C(=O)O)OC1[C@H](O)[C@H](O)CO (stereo partly drawn) [Compound 12, (2R,3R)-4-Guanyl-2,4-dideoxy-2,3-difluorosialic acid] | 74 ng/mL | – | – | – | – | 2010 µM | 0.115 µM | – | 0.9 µg/mL | ca. 10 min | 9 µM | – | – | – | – | half time for the full reactivation of the inactivated sialidase [14]: 6.7 h; Ki ([14]; 30° C., pH 7.6): 0.07 µM and 0.0704 µM; khyd ([14]; 30° C., pH 7.6): 0.0017 min⁻¹; survival compared to the untreated control group [5]: significantly extended; % weight loss mean +/− SD ([5]; 1 mg/kg): 10.75 +/− 4.87%; IC50 [15]: 0.0066 µM; IC50 [16]: 0.054 µM; Cinitial [12]: 4954 ng/mL; Cinitial ([12]; iv): 9480 ng/mL; % weight loss mean +/− SD [17]: 4.72 +/− 2.78%; number of animals remaining [17]: 5; Half life for reactivation [18]: 116 h; ki [18]: 0.075 ± 0.002 min⁻¹; half-life ([13]; inhaled or intranasal): 17.3 min; half-life ([13]; iv): 8.3 min |
| CCOC(=O)[C@]1(F)OC([C@H](O)[C@H](O)CO)[C@H](NC(C)=O)C(N)C1F (stereo partly drawn) [Compound 5, Ethyl (2R,3R)-4-Amino-2,4-dideoxy-2,3-difluorosialylate] | – | 36.4 and 48.6 | 0.009 | 2.27 | 290 ng/mL | – | – | 4.5 | 125.0 µg/mL | – | – | 0.0076 µg/mL | 0.488 µg/mL | 0.977 µg/mL | – | Cytoprotective effect ([4]; Replicate 1): 290 ng/mL; Relative activity ([4]; Replicate 1): 7.7; Relative activity ([4]; Replicate 2): 3.1 |
| CC(=O)N[C@@H]1[C@@H](N)[C@@H](F)[C@](F)(C(=O)O)O[C@H]1[C@H](O)[C@H](O)CO [Compound 4, (2R,3R)-4-Amino-2,4-dideoxy-2,3-difluorosialic acid] | 9.2 ng/mL | – | – | – | 1074 ng/mL | – | – | – | 3.6 µg/mL | ca. 10 min | 4 µM | 0.0069 µg/mL | 0.888 µg/mL | 1.78 µg/mL | – | half time for the full reactivation of the inactivated sialidase [14]: 4.8 h; Ki ([14]; 30° C., pH 7.6): 0.093 µM and 0.0932 µM; khyd ([14]; 30° C., pH 7.6): 0.0024 min⁻¹; concentration of antiviral at which a confluent monolayer of MDCK cells was protected [19]: 51.415^B μM; concentration of antiviral at which a confluent monolayer of MDCK cells was protected [20]: <12.854^A μM; concentration of antiviral at which a confluent monolayer of MDCK cells was protected [21]: <12.854^A μM; Cytoprotective effect ([4]; Replicate 1): 947 ng/mL; survival compared to the untreated control group [5]: somewhat extend survival; % weight loss mean +/− SD ([5]; 1 mg/kg): 16.02 +/− 2.07%; % weight loss mean +/− SD [17]: 2.68 +/− 1.76%; number of animals remaining [17]: 5 |
| CC(=O)NC1C(NC(=N)N)C(F)C(F)(C(=O)O)OC1[C@H](O)[C@H](O)CO (stereo partly drawn) [4-G3Feq diF SA, 5-Acetamido-2,4,5-trideoxy-2α, 3β-difluoro-4-guanidino-α-D-erythro-L-gluco-nonulopyranosonate] | – | – | – | – | – | 24.9 µM | 0.0126 µM | – | – | – | – | – | – | – | – | IC50 [15]: 0.002 µM; IC50 [7]: 0.004 µM; IC50 [10]: 0.0068 µM; IC50 [16]: 0.0045 µM; Half life for reactivation [18]: 9 h; ki [18]: 1.5 ± 0.16 min⁻¹ |
| CC(=O)N[C@@H]1C(N)C(F)[C@](F)(C(N)=O)OC1[C@H](O)[C@H](O)CO (stereo partly drawn) [Compound 9, (2R,3R)-4-Amino-2,4-dideoxy-2,3-difluorosialylamide] | – | 2.4 | 0.001 | 0.15 | – | – | – | 75.5 | 7.5 µg/mL | ca. 10 min | 1020 µM | 0.118 µg/mL | 3.76 µg/mL | 15.1 µg/mL | 0.34 min⁻¹ mM⁻¹ | – |
| CC(=O)N[C@@H]1C(O)C(F)[C@](F)(C(=O)O)OC1[C@H](O)[C@H](O)CO (stereo partly drawn) [Compound 23DFSA, 2,3-Difluorosialic acid, reference compound] | – | – | 0.001 | 0.07 | – | – | – | – | – | – | – | – | 4.26 µg/mL | 34.1 µg/mL | – | ki/Kd ([14]; 4° C.): 196 and 196^b min^−1mM^−1 |
| CCNC1C(F)[C@](F)(C(=O)O)OC([C@H](O)[C@H](O)CO)[C@@H]1NC(C)=O (stereo partly drawn) [Compound 7, (2R,3R)-4-(N-Ethyl) amino-2,4-dideoxy-2,3-difluorosialic acid] | 61.0 ng/mL | – | 0.001 | 0.57 | 3267 ng/mL | – | – | 72.7 | 7.8 µg/mL | ca. 10 min | 14 µM | 0.122 µg/mL | 3.91 µg/mL | 3.91 µg/mL | 4.1 min⁻¹ mM⁻¹ | Cytoprotective effect ([4]; Replicate 1): 3267 ng/mL; Relative activity ([4]; Replicate 1): 0.67; Relative activity ([4]; Replicate 2): 0.27 |
| CCOC(=O)C1=C[C@@H](OC(CC)CC)[C@H](NC(C)=O)[C@@H](N)C1 [Oseltamivir] | – | – | – | – | – | 1.7 µM | 0.0031 µM | – | – | – | – | – | – | – | – | IC50 [15]: 0.0226 µM; IC50 ([6]; Influenza A virus): 0.001 µM; IC50 [7]: 0.0002 µM; IC50 [10]: 0.003 µM |
| CCOC(=O)[C@]1(F)OC([C@H](O)[C@H](O)CO)[C@H](NC(C)=O)C(NC(=N)N)C1F (stereo partly drawn) [Compound 13, Ethyl (2R,3R)-4-Guanyl-2,4-dideoxy-2,3-difluorosialylate] | – | 6.3 and 8.3 | 0.006 | 3.13 | – | – | – | 400.0 | 1.4 µg/mL | – | – | 0.0444 µg/mL | 0.71 µg/mL | 0.71 µg/mL | – | – |
| CC(=O)N[C@@H]1C(NCc2ccccc2)C(F)[C@](F)(C(=O)O)OC1[C@H](O)[C@H](O)CO (stereo partly drawn) [C4 Bn] | – | – | – | – | – | – | – | – | – | – | 306 µM | – | – | – | 0.61 min⁻¹ mM⁻¹ | Ki ([14]; 30° C., pH 7.6): 4.08 µM; khyd ([14]; 30° C., pH 7.6): 0.0025 min⁻¹ |
| CC(=O)N[C@@H]1C(N=[N+]=[N-])C(F)[C@](F)(C(=O)O)OC1[C@H](O)[C@H](O)CO (stereo partly drawn) [Compound 8, (2R,3R)-4-Azido-2,4-dideoxy-2,3-difluorosialic acid] | – | 2.7 | – | – | – | – | – | 10.6 | 53.4 µg/mL | – | – | 0.104 µg/mL | – | – | – | Kd ([14]; 4° C.): 240 µM; fold lower kinetic value (ki/Kd) than 23DFSA ([14]; 4° C.): 26 fold; ki/Kd ([14]; 4° C.): 7.5 and 7.5^b min^−1mM^−1 |
| CC(=O)NC1C(F)[C@](F)(C(=O)O)OC([C@H](O)[C@H](O)CO)[C@@H]1NC(C)=O (stereo partly drawn) [Compound 11, (2R,3R)-4-(N-Acetyl) amino-2,4-dideoxy-2,3-difluorosialic acid] | – | 0.2 | – | – | – | – | – | 5.6 | 102.3 µg/mL | ca. 10 min | 397 µM | 1.6 µg/mL | – | – | 0.53 min⁻¹ mM⁻¹ | – |
